Laboratory results as given in US20110178024A1, “AMYLOID BETA-PEPTIDES AND METHODS OF USE THEREOF” (Ben Gurion University of the Negev Research and Development …, priority 2008, published 2011).
“Also recorded” adds a separate entry of the source.

Columns and labels:
[1] = tested on: Aβ-reactive T-cell lines; assay: Epitope specificity and HLA-DR allele restriction of Aβ-reactive T-cell lines; type: cell-based, human; details: autologous and semi-autologous PBMCs as antigen-presenting cells
Procedure: (§1) PBMCs were isolated from the freshly drawn heparinized whole blood of each study participant (N=133) by Ficoll-Paque (Amersham Pharmacia Biotech, Uppsala, Sweden) gradient centrifugation, according to the manufacturer's instructions. Cells were cultured in 30 wells of 96-well round-bottom plates at 2×10^5 cells/well in RPMI medium (containing 2.5% nonautologous serum, 4 mM L-glutamine, 10 mM HEPES, 1 mM sodium pyruvate, and 10 mM nonessential amino acids) in the presence of pure human Aβ1-42 peptide. On the 5th day of culture, 10 U/ml of recombinant human interleukin (IL)-2 was added by replacing half of the medium with IL-2-containing medium. On day 7 the medium was replaced with IL-2-free medium. On day 10, half of the cells from each well were restimulated with irradiated autologous PBMCs in the presence or absence of 5 μg/ml Aβ for 48 hours and then pulsed with [3H] thymidine for 12 hours. Cells w then harvested, their radioactivity measured (in cpm), and the stimulation index (SI; (cpm in the presence of Aβ divided by cpm in the absence of Aβ) determined. Positive wells (SI≧2.5 and Δcpm of at least 2000) obtained in the split-well assay were restimulated, 14 days after their primary stimulation, in the presence of irradiated (7000 R) autologous PBMCs (2×10^5 cells/well) and Aβ1-42. T-cell lines were then supplemented with IL-2 (10 U/ml) after 48 hours and every 2 days thereafter until they reached a resting state.
(§2) Antigen (Ag)-specific proliferative responses were measured by culturing the contents of positive wells from the split-well assay with irradiated PBMCs (2×10^5/well) at 37° C. in duplicate wells in 96-well U-bottom microtiter plates in a final volume of 200 μl of culture medium alone or culture medium containing serially diluted nested Aβ peptides. After 48 hours, 1 μCi of [3H]thymidine (Amersham, Arlington Heights, Ill.) was added to each well in 50 μl of culture medium. The cells were harvested 16 hours later onto fiberglass filters with a cell harvester (Packard, Filtermate 196), and [3H]thymidine incorporation was determined with a Packard Matrix 96 direct counter.
High-resolution HLA typing of PBMCs of the human subjects was carried out at the Brigham and Women's Hospital Clinical Laboratory using the PCR/RFLP method. Genomic DNA was extracted from whole blood or frozen cells. DNA was amplified using locus-specific and group-specific primers for DNA class II loci. DNA fragments were detected using agarose gel electrophoresis and subjected to restriction enzyme digestion, as recommended by the 10th International Histocompatibility Workshop (http://www.ihwg.org/components/ssopr.htm). The DNA fragments were then separated by agarose gel electrophoresis and the specific HLA-DR alleles were analyzed visually.
To identify the HLA-DR alleles that play a role in Aβ immunogenicity, Aβ-reactive T-cell lines were generated from the PBMCs of human subjects as described in Materials and Methods. These T cells were then restimulated with autologous or semi-autologous PBMCs (nonautologous PBMCs bearing one of the autologous DRB1 alleles) to determine their epitope specificity and identify their dominant epitope-presenting HLA-DR alleles. Overall, the PBMCs of 89 of the 133 individuals analyzed in this study yielded positive Aβ-reactive T-cell responses in the split-well assay as described in Materials and Methods and our previous publication ((2003). J Clin Invest 112:415-422). From these 89 PBMC samples, 39 Aβ-reactive T-cell lines were successfully generated and were analyzed for epitope specificity and HLA-DR allele restriction, as shown in FIG. 1. Table 2 lists the HLA-DR alleles whose expression by PBMCs was essential for proliferation of the Aβ-specific T-cell lines. The table also records the frequency of the HLA-DR alleles in our study population and lists the Aβ peptides harboring the dominant T-cell epitopes. […]

[2] = tested on: Aβ-reactive T-cell line 2 (DRB1 1301/0401); assay: Human T-cell line proliferation assay, T-cell line 2; type: cell-based; details: T-cell line 2, autologous PBMCs
Procedure: as §1, §2

[3] = tested on: splenocyte-derived T cells of HLA-DR15 humanized mice; assay: Proliferation assay of mouse-derived T cells, Aβ-immunized DR15 humanized mice; type: cell-based; details: for T-cell proliferation, in words: mice bearing the DRB1*1501 allele
Procedure: (§3) Mice were immunized by subcutaneous injection of Aβ 1-42 ([…]) emulsified in complete Freund's Adjuvant (CFA) H37Ra (Difco, Detroit, Mich., USA) or in incomplete Freund's Adjuvant (IFA; Sigma, Israel), as indicated in Figure legends. When indicated, pertussis toxin (PTX) (List Biological Laboratories, Campbell, Calif., USA) was injected intravenously (200 ng/mouse) on day 0 and again 48 hours later.
(§4) Popliteal lymph nodes or spleens of immunized mice were harvested and cultured (5×10^6 cells/ml) in U-shaped 96-well-plate culture dishes in DMEM containing 10% fetal calf serum, 10 mM HEPES, 1 mM sodium pyruvate, 10 mM nonessential amino acids, 1% Pen/Strep, and […] b-mercaptoethanol. After 72 hours, 3[H]thymidine ([…]) was added. Cells were harvested after 12 hours, and their radioactivity was measured.

[4] = tested on: Aβ-reactive T-cell line 1 (DRB1 1501/1502); assay: Human T-cell line proliferation assay, T-cell line 1; type: cell-based; details: for T-cell proliferation ([3H]thymidine incorporation), in words: T-cell line 1, autologous PBMCs
Procedure: as §1, §2

[5] = tested on: splenocyte-derived T cells of HLA-DR4 humanized mice; assay: Proliferation assay of mouse-derived T cells, Aβ-immunized DR4 humanized mice; type: cell-based; details: mice bearing the DR4 allele
Procedure: as §3, §4

[6] = biological target: HLA-DR4 (DRB1*0401) (human); assay: cell-based or functional assay
[7] = biological target: HLA-DR15 (DRB1*1501) (human); assay: cell-based or functional assay

**Q.** Which results are given for “QKLVFFAEDVGSNKGAIIGL (listed as Homo sapiens) [Aβ15-34]”?
**A.** DRB1 allele with which the T-cell-stimulatory Aβ peptide stimulates Aβ-reactive T-cell lines [1]: DRB1*0101; T-cell proliferation ([3H]thymidine incorporation), in words [2]: stimulated

**Q.** How did the “DRB1 allele with which the T-cell-stimulatory Aβ peptide stimulates Aβ-reactive T-cell lines” value (“DRB1 allele” below) [1] turn out when “QKLVFFAEDVGSNKG (listed as Homo sapiens) [Aβ15-29]” was run?
**A.** DRB1*1001

**Q.** Which “T-cell proliferation, in words” value [3] does the source give for “QKLVFFAEDVGSNKGAIIGLMVGGVVIA (listed as Homo sapiens) [Aβ15-42]” here?
**A.** strong T-cell proliferation

**Q.** And the “T-cell proliferation ([3H]thymidine incorporation), in words” value [4]?
**A.** triggered

**Q.** And the “T-cell proliferation, in words” value [5]?
**A.** induced

**Q.** And the “DRB1 allele” value [1]?
**A.** DRB1*1502; also recorded: DRB1*0301

**Q.** And the “T-cell proliferation ([3H]thymidine incorporation), in words” value [2]?
**A.** triggered

**Q.** Which results are given for “LVFFAEDVGSNKGAI (listed as Homo sapiens) [Aβ17-31]”?
**A.** DRB1 allele with which the T-cell-stimulatory Aβ peptide stimulates Aβ-reactive T-cell lines [1]: DRB1*1301; T-cell proliferation ([3H]thymidine incorporation), in words [2]: stimulated

**Q.** How did the “SI (stimulation index), T-cell proliferation” value ([3]; DR15 mice, 10 μg/ml, 72 hours) turn out when GSNKGAIIGLMVGGV [Aβ25-39] was run?
**A.** 8.8

**Q.** And the “SI (stimulation index), T-cell proliferation” value ([4]; T-cell line 1, 5 μg peptide/ml, irradiated autologous PBMCs, 72 hours)?
**A.** 17.3

**Q.** And the “T-cell proliferation ([3H]thymidine incorporation), in words” value [4]?
**A.** specifically stimulated

**Q.** “Aβ1-28: N-terminal fragment of Aβ, residues 1-28; nested overlapping Aβ peptide” was tested. Which “T-cell proliferation, in words” value [3] did it give?
**A.** only a mild T-cell response

**Q.** And the “T-cell proliferation ([3H]thymidine incorporation), in words” value [4]?
**A.** only mild T-cell proliferation

**Q.** “KLVFFAEDVGSNKGA (listed as Homo sapiens) [Aβ16-30]” was tested. Which “T-cell proliferation ([3H]thymidine incorporation), in words” value [2] did it give?
**A.** stimulated

**Q.** Which “DRB1 allele” value [1] does the source give for “Aβ25-42: T-cell-stimulatory Aβ peptides between Aβ residues 25 and 42 (GSNKGAIIGLMVGGVVIA; Amyloid-beta protein 42; UniProt P05067 696-713, looked up, fragment)” here?
**A.** DRB1*1501

**Q.** “VFFAEDVGSNKGAII (listed as Homo sapiens) [Aβ18-32]” was tested. Which “DRB1 allele” value [1] did it give?
**A.** DRB1*0404; also recorded: DRB1*0401

**Q.** What about the “T-cell proliferation ([3H]thymidine incorporation), in words” value [2] of the same molecule?
**A.** stimulated

**Q.** How did the “T-cell proliferation ([3H]thymidine incorporation), in words” value [2] turn out when “Aβ19-33: nested overlapping Aβ peptide, residues 19-33 (FFAEDVGSNKGAIIG)” was run?
**A.** Substantially lower T-cell proliferation

**Q.** What does the source list for VFFAEDVGSNKGAII [Aβ18-32 peptide]?
**A.** T-cell line 2 proliferation, SI at 5 µg peptide/ml [6]: 6.1 SI; T-cell proliferation of splenocytes of Aβ-immunized DR4 mice, SI at 10 µg/ml [6]: 9.2 SI

**Q.** Which results are given for KGAIIGLMVGGVVIA [Aβ28-42 peptide]?
**A.** T-cell line 1 proliferation, SI at 5 µg peptide/ml [7]: 12.6 SI; T-cell proliferation of splenocytes of Aβ-immunized DR15 mice, SI at 10 µg/ml [7]: 12.2 SI

**Q.** KLVFFAEDVGSNKGA [Aβ16-30 peptide] was tested. Which “T-cell line 2 proliferation, SI at 5 µg peptide/ml” value (shortened to “T-cell line 2 proliferation, SI”) [6] did it give?
**A.** 6.4 SI

**Q.** And the “T-cell proliferation of splenocytes of Aβ-immunized DR4 mice, SI at 10 µg/ml” value [6]?
**A.** 5.9 SI

**Q.** QKLVFFAEDVGSNKGAIIGLMVGGVVIA [Aβ15-42 peptide] was tested. Which “T-cell line 2 proliferation, SI” value [6] did it give?
**A.** 7.8 SI

**Q.** And the “T-cell proliferation of splenocytes of Aβ-immunized DR4 mice, SI at 10 µg/ml” value [6]?
**A.** 3.7 SI

**Q.** What about the “T-cell line 1 proliferation, SI at 5 µg peptide/ml” value (shortened to “T-cell line 1 proliferation, SI”) [7] of the same molecule?
**A.** 15.8 SI

**Q.** What about the “T-cell proliferation of splenocytes of Aβ-immunized DR15 mice, SI at 10 µg/ml” value [7] of the same molecule?
**A.** 14.2 SI

**Q.** Which “T-cell line 1 proliferation, SI” value [7] does the source give for GSNKGAIIGLMVGGV [Aβ25-39 peptide] here?
**A.** 17.3 SI

**Q.** What about the “T-cell proliferation of splenocytes of Aβ-immunized DR15 mice, SI at 10 µg/ml” value [7] of the same molecule?
**A.** 8.8 SI

**Q.** How did the “T-cell line 2 proliferation, SI” value [6] turn out when LVFFAEDVGSNKGAI [Aβ17-31 peptide] was run?
**A.** 6.2 SI

**Q.** And the “T-cell proliferation of splenocytes of Aβ-immunized DR4 mice, SI at 10 µg/ml” value [6]?
**A.** 6.1 SI

**Q.** Which “T-cell line 1 proliferation, SI” value [7] does the source give for EDVGSNKGAIIGLMV [Aβ22-36 peptide] here?
**A.** 10.2 SI
